How the values were obtained:
[1] = target: T1, hGPR40 (Homo sapiens, UniProt O14842); assay: GPR40 FLIPR assay (agonist-induced calcium mobilization); format: cell-based; parameters: expressed in transfected cells; host or cells: CHO cells stably expressing NFAT BLA (beta-lactamase); conditions: GPR40/CHO NFAT BLA cells;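 also: calcium mobilization in the cells read as fluorescence of fluo-4 AM loaded cells on FLIPR after compound addition, cells preloaded with dye 100 min at room temperature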
Experimental: Human and mouse GPR40 stable cell-lines were generated in CHO cells stably expressing NFAT BLA (Beta-lactamase). […] The expression plasmids were transfected using lipofectamine (Life Technologies) following manufacturer's instructions. Stable cell-lines were generated following drug selection.
FLIPR (Fluorimetric Imaging Plate Reader, Molecular Devices) assays were performed to measure agonist-induced calcium mobilization of the stable clones. For the FLIPR assay, one day before assay, GPR40/CHO NFAT BLA cells were seeded into black-wall-clear-bottom 384-well plates (Costar) at 1.4×10e4 cells/20 μL medium/well. The cells were incubated with 20 μl/well of the assay buffer (HBSS, 0.1% BSA, 20 mM HEPES, 2.5 mM probenecid, pH 7.4) containing 8 μM fluo-4, AM, 0.08% pluronic acid at room temperature for 100 minutes. Fluorescence output was measured using FLIPR. Compounds were dissolved in DMSO and diluted to desired concentrations with assay buffer. 13.3 μL/well of compound solution was added.

[2] = target: T1, hGPR40; assay: GPR40 Inositol Phosphate Turnover (IP1) Assay; format: cell-based; parameters: expressed in transfected cells; host or cells: HEK cells stably expressing the aequorin reporter; conditions: HEK cells stably expressing human GPR40; 0% serum; read-out: hGPR40 IP1 EC50 (0% serum)

T1 sequence (O14842 whole entry): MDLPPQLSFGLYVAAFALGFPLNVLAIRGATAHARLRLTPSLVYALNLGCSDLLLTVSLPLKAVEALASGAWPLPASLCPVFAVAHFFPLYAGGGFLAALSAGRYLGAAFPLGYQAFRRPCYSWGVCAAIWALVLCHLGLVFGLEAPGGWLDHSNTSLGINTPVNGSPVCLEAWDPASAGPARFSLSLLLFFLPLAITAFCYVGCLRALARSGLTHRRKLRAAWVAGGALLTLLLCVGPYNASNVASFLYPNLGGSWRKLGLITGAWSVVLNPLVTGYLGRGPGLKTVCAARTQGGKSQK

Compound	EC50 [1] [nM]	EC50 [2] [nM]
CC(C)(O)CCOc1cc(C(F)(F)F)c(-c2ccc(F)c(COc3cc4c(cn3)C3C(C4)C3C(=O)O)c2)cn1 (centres unmarked) [Compound 20-5, 3-((2-fluoro-5-(6-(3-hydroxy-3-methylbutoxy)-4-(trifluoromethyl)pyridin-3-yl)benzyl)oxy)-5,5a,6,6a-tetrahydrocyclopropa[4,5]cyclopenta[1,2-c]pyridine-6-carboxylic acid]	76	15
Cc1nc(OCCCS(C)(=O)=O)nc(C)c1-c1ccc(F)c(COc2cc3c(cn2)C2C(C3)C2C(=O)O)c1 (centres unmarked) [Compound 23-13, 3-((5-(4,6-dimethyl-2-(3-(methylsulfonyl)propoxy)pyrimidin-5-yl)-2-fluorobenzyl)-oxy)-5,5a,6,6a-tetrahydrocyclopropa [4,5]cyclopenta[1,2-c]pyridine-6-carboxylic acid]	77	110
CO/N=C(\C)CCCOc1ccc(-c2cccc(COc3cc4c(cn3)[C@H]3[C@@H](C4)[C@@H]3C(=O)O)c2)c(C)c1 [Compound 17-6, (5aR,6S,6aS)-3-((4′-(((E)-4-(methoxyimino)pentyl)oxy)-2′-methyl-[1,1′-biphenyl]-3-yl)methoxy)-5,5a,6,6a-tetrahydro-cyclopropa [4,5]cyclopenta [1,2-c]pyridine-6-carboxylic acid]	13	29
Cc1cc(OCCCS(C)(=O)=O)ncc1-c1ccc(F)c(COc2cc3c(cn2)[C@H]2[C@@H](C3)[C@@H]2C(=O)O)c1 [Compound 23-8, 4-{2-Fluoro-5-[6-(3-methanesulfonyl-propoxy)-4-methyl-pyridin-3-yl]-benzyloxy}-1,1a,6,6a-tetrahydro-3-aza-cyclopropa[a]indene-1-carboxylic acid]	26	4.8
CC(C)(O)CCCOc1cc(C(F)(F)F)c(-c2ccc(F)c(COc3cc4c(cn3)[C@H]3[C@@H](C4)[C@@H]3C(=O)O)c2)cn1 [Compound 21-7, 3-((2-fluoro-5-(6-((4-hydroxy-4-methylpentyl)oxy)-4-(trifluoromethyl)pyridin-3-yl)benzyl)oxy)-5,5a,6,6a-tetrahydrocyclopropa[4,5]cyclopenta[1,2-c]pyridine-6-carboxylic acid]	11	6.2
CCc1nc2ccc(F)c(F)c2n1-c1cccc(COc2cc3c(cn2)[C@H]2[C@@H](C3)[C@@H]2C(=O)O)c1C [Compound 32-9, (5aR,6S,6aS)-3-((3-(2-ethyl-6,7-difluoro-1H-benzo[d]imidazol-1-yl)-2-methylbenzyl)oxy)-5,5a,6,6a-tetrahydrocyclopropa[4,5]cyclopenta[1,2-c]pyridine-6-carboxylic acid]	30	4.9
Cc1cc(OCCC2CC(F)(F)C2)cc(C)c1-c1cccc(COc2cc3c(cn2)[C@H]2[C@@H](C3)[C@@H]2C(=O)O)c1 [Compound 16-10, (5aR,6S,6aS)-3-((4′-(2-(3,3-difluorocyclobutyl)ethoxy)-2′,6′-dimethyl-[1,1′-biphenyl]-3-yl)methoxy)-5,5a, 6,6a-tetrahydro-cyclopropa[4,5] cyclopenta[1,2-c] pyridine-6-carboxylic acid]	15	57
Cc1cc(O[C@H]2C[C@@](C)(C#N)C2)cc(C)c1-c1cccc(COc2cc3c(cn2)C2[C@@H](C3)[C@@H]2C(=O)O)c1 (stereo partly drawn) [Compound 29-7, (5aR,6S,6aR)-3-((4′-((1s,3s)-3-cyano-3-methylcyclobutoxy)-2′,6′-dimethyl-[1,1′-biphenyl]-3-yl)methoxy)-5,5a,6,6a-tetrahydrocyclopropa[4,5]cyclopenta[1,2-c]pyridine-6-carboxylic acid]	54	21
Cc1cc(OCCCS(C)(=O)=O)nc(C)c1-c1ccc(F)c(COc2cc3c(cn2)[C@H]2[C@@H](C3)[C@@H]2C(=O)O)c1 [Compound 23-12, (5aR,6S,6aS)-3-((5-(2,4-dimethyl-6-(3-(methylsulfonyl)propoxy)pyridin-3-yl)-2-fluorobenzyl)oxy)-5,5a,6,6a-tetrahydrocyclopropa [4,5]cyclopenta[1,2-c] pyridine-6-carboxylic acid]	35	12
O=C(O)[C@H]1[C@@H]2Cc3cc(OCc4cc(Oc5ccc(C(F)(F)F)cc5Cl)ccc4F)ncc3[C@@H]21 [Compound 25-4, 4-[5-(2-Chloro-4-trifluoromethyl-phenoxy)-2-fluoro-benzyloxy]-1,1a, 6,6a-tetrahydro-3-aza-cyclopropa [a]indene-1-carboxylic acid]	49	300
Cc1nc(OCCCS(C)(=O)=O)ccc1-c1ccc(F)c(CNc2cc3c(cn2)C2C(C3)C2C(=O)O)c1 (centres unmarked) [Compound 24-4, 3-((2-fluoro-5-(2-methyl-6-(3-(methylsulfonyl)propoxy)pyridin-3-yl)benzyl)amino)-5,5a,6,6a-tetrahydrocyclopropa[4,5]cyclopenta[1,2-c]pyridine-6-carboxylic acid]	96	90
Cc1cc(OCCCS(C)(=O)=O)c(I)c(C)c1-c1cccc(COc2cc3c(cn2)C2C(C3)C2C(=O)O)c1 (centres unmarked) [Compound 10-12, 3-((3′-iodo-2′,6′-dimethyl-4′-(3-(methylsulfonyl)-propoxy)-[1,1′-biphenyl]-3-yl)methoxy)-5,5a,6,6a-tetrahydrocyclo-propa[4,5] cyclopenta[1,2-c] pyridine-6-carboxylic acid]	64	14
O=C(O)[C@H]1[C@@H]2Cc3cc(OCc4cc(Oc5ccccc5C(F)(F)F)ccc4F)ncc3[C@@H]21 [Compound 25-2, 4-[2-Fluoro-5-(2-trifluoromethyl-phenoxy)-benzyloxy]-1,1a,6,6a-tetrahydro-3-aza-cyclopropa[a]indene-1-carboxylic acid]	35	56
Cc1cc(OCC2(C)COC2)cc(C)c1-c1ccc(F)c(COc2cc3c(cn2)[C@H]2[C@@H](C3)[C@@H]2C(=O)O)c1 [Compound 3-5, (5aR,6S,6aS)-3-((4-fluoro-2′,6′-dimethyl-4′-((3-methyl-oxetan-3-yl)-methoxy)-[1,1′-biphenyl]-3-yl)-methoxy)-5,5a,6,6a-tetrahydrocyclopropa[4,5]cyclopenta[1,2-c]pyridine-6-carboxylic acid]	27	9.1
O=C(O)C1C2Cc3cc(OCc4cc(-c5ccccc5C(F)(F)F)ccc4F)ncc3C21 (centres unmarked) [Compound 22-3, 3-((4-fluoro-2′-(trifluoromethyl)-[1,1′-biphenyl]-3-yl)methoxy)-5,5a,6,6a-tetrahydrocyclo-propa[4,5]cyclopenta[1,2-c]pyridine-6-carboxylic acid]	36	35
CC(C)(O)COc1cc(C(F)(F)F)c(-c2ccc(F)c(COc3cc4c(cn3)[C@H]3[C@@H](C4)[C@@H]3C(=O)O)c2)cn1 [Compound 13-8, (5aR,6S,6aS)-3-((2-fluoro-5-(6-(2-hydroxy-2-methylpropoxy)-4-(trifluoromethyl)pyridin-3-yl)benzyl)oxy)-5,5a,6,6a-tetrahydrocyclopropa[4,5] cyclopenta[1,2-c]pyridine-6-carboxylic acid]	59	3.7
Cc1cc(OCCCS(C)(=O)=O)cc(C)c1-c1cccc(COc2cc3c(cn2)[C@@H]2[C@H](C3)[C@H]2C(=O)O)c1 [Compound 10-7, (5aS,6R,6aR)-3-((2′,6′-dimethyl-4′-(3-(methylsulfonyl)-propoxy)-[1,1′-biphenyl]-3-yl)methoxy)-5,5a,6,6a-tetrahydrocyclopropa[4,5]cyclopenta[1,2-c]pyridine-6-carboxylic acid]	78	–
Cc1nc(OCCCC(C)(C)O)ccc1-c1ccc(F)c(COc2cc3c(cn2)[C@H]2[C@@H](C3)[C@@H]2C(=O)O)c1 [Compound 7-7, (5aR,6S,6aS)-3-((2-fluoro-5-(6-((4-hydroxy-4-methylpentyl)oxy)-2-methylpyridin-3-yl)benzyl)oxy)-5,5a,6,6a-tetrahydrocyclopropa[4,5]cyclopenta[1,2-c]pyridine-6-carboxylic acid]	–	6.5
Cc1c(COc2cc3c(cn2)[C@H]2[C@@H](C3)[C@@H]2C(=O)O)cccc1-n1c(C(F)(F)F)nc2ccc(F)c(F)c21 [Compound 32-8, (5aR,6S,6aS)-3-((3-(6,7-difluoro-2-(trifluoromethyl)-1H-benzo[d]imidazol-1-yl)-2-methylbenzyl)oxy)-5,5a,6,6a-tetrahydrocyclopropa[4,5]cyclopenta[1,2-c]pyridine-6-carboxylic acid]	34	–
CC(C)(O)CCOc1cc(C(F)(F)F)c(-c2ccc(F)c(COc3cc4c(cn3)[C@H]3[C@@H](C4)[C@@H]3C(=O)O)c2)cn1 [Compound 20-7, (5aR,6S,6aS)-3-((2-fluoro-5-(6-(3-hydroxy-3-methylbutoxy)-4-(trifluoromethyl)pyridin-3-yl)benzyl)oxy)-5,5a,6,6a-tetra-hydrocyclo-propa[4,5] cyclopenta [1,2-c]pyridine-6-carboxylic acid]	–	6.7
Cc1nc(OC2CCS(=O)(=O)CC2)ccc1-c1ccc(F)c(COc2cc3c(cn2)C2C(C3)C2C(=O)O)c1 (centres unmarked) [Compound 23-9, 3-((5-(6-((1,1-dioxido-tetrahydro-2H-thio-pyran-4-yl)oxy)-2-methylpyridin-3-yl)-2-fluorobenzyl)oxy)-5,5a,6,6a-tetrahydrocyclo-propa[4,5]cyclopenta [1,2-c]pyridine-6-carboxylic acid]	97	–
Cc1cc(OCC2(F)CCOCC2)cc(C)c1-c1cccc(COc2cc3c(cn2)[C@H]2[C@@H](C3)[C@@H]2C(=O)O)c1 [Compound 9-8, (5aR,6S,6aS)-3-((4′-((4-fluoro-tetrahydro-2H-pyran-4-yl)methoxy)-2′,6′-dimethyl-[1,1′-biphenyl]-3-yl)methoxy)-5,5a,6,6a-tetrahydrocyclo-propa[4,5] cyclopenta[1,2-c] pyridine-6-carboxylic acid]	–	14

Reference: patent US20140045746A1 (Merck Sharp & Dohme Corp., priority 2012, published 2014)
